In patent publication US20200255828A1, “METHODS AND COMPOSITIONS FOR ALTERING FUNCTION AND STRUCTURE OF CHROMATIN LOOPS AND/OR DOMAINS” (THE BROAD INSTITUTE, INC., priority 2017, published 2020):
“Also recorded” adds a separate entry of the source.

B1: WT CTCF: wild-type CTCF introduced by transfection into CTCF-AID cells (protein)
chain: MEGDAVEAIVEESETFIKGKERKTYQRRREGGQEEDACHLPQNQTDGGEVVQDVNSSVQMVMMEQLDPTLLQMKTEVMEGTVAPEAEAAVDDTQIITLQVVNMEEQPINIGELQLVQVPVPVTVPVATTSVEELQGAYENEVSKEGLAESEPMICHTLPLPEGFQVVKVGANGEVETLEQGELPPQEDPSWQKDPDYQPPAKKTKKTKKSKLRYTEEGKDVDVSVYDFEEEQQEGLLSEVNAEKVVGNMKPPKPTKIKKKGVKKTFQCELCSYTCPRRSNLDRHMKSHTDERPHKCHLCGRAFRTVTLLRNHLNTHTGTRPHKCPDCDMAFVTSGELVRHRRYKHTHEKPFKCSMCDYASVEVSKLKRHIRSHTGERPFQCSLCSYASRDTYKLKRHMRTHSGEKPYECYICHARFTQSGTMKMHILQKHTENVAKFHCPHCDTVIARKSDLGVHLRKQHSYIEQGKKCRYCDAVFHERYALIQHQKSHKNEKRFKCDQCDYACRQERHMIMHKRTHTGEKPYACSHCDKTFRQKQLLDMHFKRYHDPNFVPAAFVCSKCGKTFTRRNTMARHADNCAGPDGVEGENGGETKKSKRGRKRKMRSKKEDSSDSENAEPDLDDNEDEEEPAVEIEPEPEPQPVTPAPPPAKKRRGRPPGRTNQPKQNQPTAIIQVEDQNTGAIENIIVEVKKEPDAEPAEGEEEEAQPAATDAPNGDLTPEMILSMMDR

Tests used:
HCT-116 cells = test: Loop reformation (Hi-C APA) after Rad21 degradation and recovery without transcription, replication or ATP; format: cell-based, human; conditions: Rad21 temporarily degraded and allowed to recover
Source text: Using the degron system, Applicants can directly measure the influence of cellular processes on loop formation (Vian et al, 2018). […] Applicants also tested interchromasomal cohesin-independent links requirement for ATP after cohesin degradation and observed that depletion of ATP strengthens the interactions between superenhancers (FIG. 23).

CTCF-AID cells = test: Rescue experiments in the CTCF-AID cell line (Hi-C); format: cell-based, human; conditions: endogenous CTCF degraded by auxin
Source text: The protein CTCF is thought to act as an oriented brake to halt cohesin-mediated loop extrusion in one direction along the genome but not the other, but how this braking activity is mediated mechanistically is unknown. An important question regarding CTCF barrier activity is whether there is a protein domain mediating the ability to halt extrusion or whether CTCF halts cohesin via steric occlusion. As a proof of principle, Applicants introduced either (i) WT CTCF, (ii) CTCF lacking its N terminal domain, or (iii) CTCF lacking its C terminal domain by transfection into CTCF-AID cells. […] Applicants can systematically identify the key residues in the N terminus of CTCF that are necessary for barrier activity by transfecting plasmids expressing mutant CTCF proteins with tiled mutations on the N terminus and assaying via Hi-C after degradation of endogenous CTCF. Similarly, Applicants can develop HCT-116 degron lines for SA1, SA2, and SA1+SA2 double degron (the cohesin ring co-factors that are thought to mediate the interaction between cohesin and CTCF). By depleting endogenous SA protein, introducing SA proteins with tiled mutations across various domains, and assaying looping via Hi-C, Applicants can similarly identify the residues on the cohesin complex required for interaction with CTCF. […]

Row | Molecule | effect on loop formation during Rad21 recovery (HCT-116 cells) | rescue of the looping phenotype (CTCF-AID cells)
1 | CN1CC[C@H](c2c(O)cc(O)c3c(=O)cc(-c4ccccc4Cl)oc23)[C@H](O)C1 [flavopiridol] | does not block loop formation; also recorded: loop reformation occurs without issue | 
2 | CC[C@H]1/C=C/C=C/C[C@@H](C)[C@H](O)[C@@](C)(O)C(=O)[C@@H](C)[C@H](O)[C@@H](C)C(=O)[C@@H](C)[C@H](O)[C@@H](C)/C=C/C(=O)O[C@@H]2[C@H](C)[C@H](CC1)O[C@]1(CC[C@H](C)[C@H](C[C@@H](C)O)O1)[C@H]2C [oligomycin] | does block loop formation; also recorded: loop formation requires ATP | 
3 | Cc1cn([C@H]2C[C@H](O)[C@@H](CO)O2)c(=O)[nH]c1=O [thymidine] | does not block loop formation; also recorded: loop reformation occurs without issue | 
4 | B1 |  | rescue the looping phenotype
